The source of these data is patent US9926315B2, “Triazolopyridine compounds and methods for the treatment of cystic fibrosis” (Flatley Discovery Lab, LLC, priority 2014, dated 2018).

A value given as a limit tells only on which side of the number the result lay.

The assay concerns the target T1, human ΔF508-CFTR (Homo sapiens, UniProt P13569, DEL508-508).
T1 construct: expressed in transfected cells
As to the kind of experiment: CFTR-YFP High Throughput Assay (HTS YFP flux assay, corrector / potentiator protocols). In kind it is cell-based. To be noted: FRT cells stably expressing human ΔF508-CFTR and YFP-H148Q/I152L; for Emax: normalized to positive control, read-out: Emax (% Efficacy, EMax normalized to the positive control). The procedure:
Assays for Detecting and Measuring the Effect of Compounds on dF508-CFTR Channels CFRT-YFP High Throughput Assay: Corrector Assay:
The following protocol is designed to selectively screen small molecule compounds for F508del CFTR corrector activities in the HTS YFP flux assay. In this protocol, the cells are incubated with testing compounds for 24 hours, washed with PBS, stimulated with forskolin and a standard potentiator, and read on a 384-well HTS plate reader, such as the Hamamatsu FDDD-6000.
YFP fluorescence intensity is acquired at high speed before and after iodide buffer is injected to the assay cells. Iodide enters the cells via active CFTR channels in the plasma membrane, and quenches the YFP fluorescence. The rate of fluorescence quenching is proportionally related to the total CFTR activities in the cell membrane. dF508-CFTR corrector accelerates YFP quenching by increasing the number of CFTR molecules in the testing cell plasma membrane.
This method was initially developed for bench top plate readers (Galietta, 2001), and was adapted to the HTS format (Sui, 2010).
Fisher Rat Thyroid (FRT) cells stably expressing both human ΔF508-CFTR and a halide-sensitive yellow fluorescent protein (YFP-H148Q/I152L 25, 22) (Galietta, 2001) were cultured on plastic surface in Coon's modified Ham's F12 medium supplemented with FBS 10%, L-glutamine 2 mM, penicillin 100 U/mL, and streptomycin 100 μg/mL. G418 (0.75-1.0 mg/mL) and zeocin (3.2 μg/mL) were used for selection of FRT cells expressing ΔF508-CFTR and YFP. For primary screening, FRT cells were plated into 384-well black wall, transparent bottom microtiter plates (Costar; Corning Inc.) at a cell density of 20, 000-40, 000 per well. Test compound was applied to the cells at varying concentrations ranging from 2 nM-[…] in either a 2-fold or 3-fold dilution series. Cells were incubated in a cell culture incubator at 37° C. with 5% CO2 for 24-26 h. Assay plates were washed with DPBS media (Thermo, cat#SH30028.02) to remove unbound cells and compound. Stimulation media (25 μL) containing 20 μM Forskolin & 30 μM P3 [6-(Ethyl-phenyl-sulfonyl)-4-oxo-1, 4-dihydro-quinoline-3-carboxylic acid 2-methoxy-benzylamide] in Hams F-12 coon's modified media was added to the plate wells and incubated at room temperature for 60-120 min. 25 μL of HEPES-PBS-I buffer (10 mM HEPES, 1 mM MgCl2, 3 mM KCl, 1 mM CaCl2, 150 mM NaI) was then added and fluorescence quench curves (Excitation 500 nm/Emission 540 nm; exposure 136 ms) were immediately recorded on an FDSS-6000 plate reader (Hamamatsu). Quench rates were derived from least squares fitting of the data (Sui, 2010).
The following protocol is designed to selectively screen small molecule compounds for F508del CFTR potentiator activities in the HTS YFP flux assay. In this protocol, the cells are incubated at 27° C. for 24 hours with homogeneously boosted dF508-CFTR expression in the cell membrane by the low temperature, washed with PBS, stimulated with forskolin, and read on a 384-well HTS plate reader, such as the Hamamatsu […].
YFP fluorescence intensity is acquired at high speed before and after iodide buffer is injected to the assay cells. Iodide enters the cells via active CFTR channels in the plasma membrane, and quenches the YFP fluorescence. The rate of fluorescence quenching is proportionally related to the total CFTR activities in the cell membrane. dF508del-CFTR potentiators accelerate YFP quenching by increasing CFTR activities in the testing cell plasma membrane.
Fisher Rat Thyroid (FRT) cells stably expressing both human ΔF508-CFTR and a halide-sensitive yellow fluorescent protein (YFP-H148Q/I152L 25, 22) (Galietta, 2001) were cultured on plastic surface in Coon's modified Ham's F12 medium supplemented with FBS 10%, L-glutamine 2 mM, penicillin 100 U/mL, and streptomycin 100 μg/mL. G418 (0.75-1.0 mg/mL) and zeocin (3.2 μg/mL) were used for selection of FRT cells expressing ΔF508-CFTR and YFP. […]

T1 sequence (P13569 with tags, fused parts or gaps DEL508-508): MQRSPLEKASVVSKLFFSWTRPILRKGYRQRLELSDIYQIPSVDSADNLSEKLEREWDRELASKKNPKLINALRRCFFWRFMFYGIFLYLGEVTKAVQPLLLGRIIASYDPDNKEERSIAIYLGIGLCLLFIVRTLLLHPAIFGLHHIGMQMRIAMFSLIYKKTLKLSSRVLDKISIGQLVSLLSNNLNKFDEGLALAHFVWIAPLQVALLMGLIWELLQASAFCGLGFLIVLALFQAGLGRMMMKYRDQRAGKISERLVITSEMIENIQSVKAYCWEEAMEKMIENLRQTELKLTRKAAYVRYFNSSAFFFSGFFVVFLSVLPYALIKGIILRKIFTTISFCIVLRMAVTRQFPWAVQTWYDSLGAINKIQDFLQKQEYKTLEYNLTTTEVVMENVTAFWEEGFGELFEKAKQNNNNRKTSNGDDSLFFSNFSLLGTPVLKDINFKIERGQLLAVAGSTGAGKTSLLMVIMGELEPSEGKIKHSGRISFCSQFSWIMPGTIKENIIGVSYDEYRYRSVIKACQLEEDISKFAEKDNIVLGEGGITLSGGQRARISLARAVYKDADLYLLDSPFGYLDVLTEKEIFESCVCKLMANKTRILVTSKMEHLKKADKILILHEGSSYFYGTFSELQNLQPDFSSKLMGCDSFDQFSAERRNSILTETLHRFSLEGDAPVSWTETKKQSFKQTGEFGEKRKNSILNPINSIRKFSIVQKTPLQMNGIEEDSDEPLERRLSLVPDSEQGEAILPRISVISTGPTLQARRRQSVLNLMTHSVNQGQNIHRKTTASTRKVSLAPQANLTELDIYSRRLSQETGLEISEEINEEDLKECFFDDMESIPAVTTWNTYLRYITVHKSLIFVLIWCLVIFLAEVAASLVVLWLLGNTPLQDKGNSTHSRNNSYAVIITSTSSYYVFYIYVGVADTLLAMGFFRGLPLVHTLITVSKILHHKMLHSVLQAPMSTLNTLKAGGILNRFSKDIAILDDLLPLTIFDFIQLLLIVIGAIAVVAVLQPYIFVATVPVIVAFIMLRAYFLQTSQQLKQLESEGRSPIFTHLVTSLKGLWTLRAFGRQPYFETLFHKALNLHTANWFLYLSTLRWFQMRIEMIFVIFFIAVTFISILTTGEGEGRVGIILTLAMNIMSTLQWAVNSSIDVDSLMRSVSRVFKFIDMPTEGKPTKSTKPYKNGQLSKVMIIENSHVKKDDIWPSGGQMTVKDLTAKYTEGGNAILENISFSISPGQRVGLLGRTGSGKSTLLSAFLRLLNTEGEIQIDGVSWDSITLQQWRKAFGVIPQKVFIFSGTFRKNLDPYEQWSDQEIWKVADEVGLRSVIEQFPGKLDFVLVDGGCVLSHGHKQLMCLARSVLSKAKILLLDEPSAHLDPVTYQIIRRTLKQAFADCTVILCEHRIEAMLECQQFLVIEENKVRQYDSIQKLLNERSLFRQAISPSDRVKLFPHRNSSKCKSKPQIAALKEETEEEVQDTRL

Consider `Cc1ccc(CNc2nc3ccc(S(=O)(=O)N4CCCCC4)cn3n2)cc1` [Example 102], for which the concentration for a half-maximal effect (EC50) is below 1000 nM and the Emax is above 80%.
In the same order, the values of `O=S(=O)(c1ccccc1)c1ccc2nnc(NCCC3CCCCC3)n2c1` [Example 76] are 1000 to 10000 nM and above 80%.
Consider `O=S(=O)(c1ccccc1)c1ccc2nc(NC3Cc4ccccc4C3)nn2c1` [Example 80, N-(2,3-dihydro-1H-inden-2-yl)-6-(phenylsulfonyl)-[1,2,4]triazolo[1,5-a]pyridin-2-amine], for which the EC50 is below 1000 nM and the Emax was above 80%.
In the same order, the values of `CCN(CC)S(=O)(=O)c1ccc2nnc(N3CCN(Cc4ccccc4)CC3)n2c1` [Example 6] are 1000 to 10000 nM and 40 to 80%.
In the same order, the values of `CCOC(=O)OC(CNc1nnc2ccc(S(=O)(=O)c3ccccc3)cn12)C1CCCCC1` (stereo not shown) [Example 77] are below 1000 nM and above 80%.
The like results for `O=S(=O)(c1ccccc1)c1ccc2nnc(NC[C@H](O)c3ccccc3)n2c1` [Example 70] were, in that order, below 1000 nM and above 80%.
As to `COC[C@@H](Nc1nnc2ccc(S(=O)(=O)c3ccccc3)cn12)c1ccccc1` [Example 68], the 50% effective concentration (EC50) was below 1000 nM and the Emax was above 80%.
In the same order, the values of `O=S(=O)(c1ccccc1)c1ccc2nnc(NCc3ccc(-c4ccccn4)cc3)n2c1` [Example 65] are below 1000 nM and above 80%.
In the same order, the values of `CCN(CC)S(=O)(=O)c1ccc2nnc(NCc3ccccc3)n2c1C` [Example 61, 3-(Benzylamino)-N,N-diethyl-5-methyl-[1,2,4]triazolo[4,3-a]pyridine-6-sulfonamide] are 1000 to 10000 nM and 10 to 40%.
In the same order, the values of `CCN(CC)S(=O)(=O)c1ccc2nnc(N[C@@H](C)C(=O)N3CCCCC3)n2c1` [Example 57] are 1000 to 10000 nM and 40 to 80%.
Take `CCN(CC)S(=O)(=O)c1ccc2nnc(NCC(C)(C)C)n2c1` [Example 7]: the EC50 was below 1000 nM and the Emax was 40 to 80%.
Consider `CCN(CC)S(=O)(=O)c1ccc2nnc(N[C@@H](C)c3ccccc3)n2c1` [Example 21], for which the half-maximal effective concentration (EC50) is below 1000 nM and the maximum response (Emax) is above 80%.
As to `CCN(CC)S(=O)(=O)c1ccc2nnc(NCCc3ccccc3)n2c1` [Example 25], the EC50 was below 1000 nM and the Emax was above 80%.
In the same order, the values of `O=S(=O)(c1ccccc1)c1ccc2nc(NCc3ccc(C4CCOCC4)cc3)nn2c1` [Example 92] are 1000 to 10000 nM and 40 to 80%.
